Measurements as given in article doi:10.1101/2022.01.05.475095v1 (biorxiv, 2022).

Molecular target: T1, SARS-CoV-2 Mpro (Severe acute respiratory syndrome coronavirus 2, UniProt P0DTD1)
Assay: biochemical
Details: read-out: % inhibition at 10 μM

Row | Structure (SMILES) | inhibition at 10 µM [%]
1 | CC(=O)c1ccc(N(Cc2cn(S(=O)(=O)c3ccc(C)cc3)nn2)C2=CC(=O)c3ccccc3C2=O)cc1 [compound 318, 318] | 45 ± 13

Molecular target: T1, SARS-CoV-2 Mpro
Assay: fluorogenic quenched peptide cleavage assay
Type: biochemical
Details: not given

Row | Structure (SMILES) | IC50 [nM]
2 | O=C1C(Sc2ccccc2)=C(Sc2ccccc2)C(=O)c2ccccc21 [compound 379, 379] | 630 ± 40
3 | COc1ccc(SC2=C(Sc3ccc(OC)cc3)C(=O)c3ccccc3C2=O)cc1 [compound 382, 382] | 410 ± 20
4 | CC(=O)NC1=CC(=O)c2c(cccc2[N+](=O)[O-])C1=O [compound 415, 415] | 5000 ± 200

Molecular target: T1, SARS-CoV-2 Mpro
Assay: biochemical
Details: read-out: Mpro % inhibition at 10 µM

Row | Structure (SMILES) | inhibition at 10 µM [%]
5 | Cc1ccc(S(=O)(=O)c2cccc3c2C(=O)c2ccccc2C3=O)cc1 [compound 477, 477] | 5 ± 2
6 | CC1(C)OC2=C(CC1Br)C(=O)C(=NNc1ccccc1)c1ccccc12 (stereo not shown) [compound 666, 666] | 5 ± 5
7 | CC1(C)CC2=C(O1)c1ccccc1C(=NNc1ccccc1)C2=O [compound 673, 673] | 8 ± 3
8 | CC1(C)OC2=C(C(=O)C(=O)c3ccccc32)C1n1cc(CNC2=C(Br)C(=O)c3ccccc3C2=O)nn1 (stereo not shown) [compound 191] | 55 ± 3
9 | O=C1C(Sc2ccc(Br)cc2)=C(Sc2ccc(Br)cc2)C(=O)c2ccccc21 [compound 380, 380] | 12 ± 3
10 | Cc1ccc(S(=O)(=O)n2cc(CNC3=C(Cl)C(=O)c4ccccc4C3=O)nn2)cc1 [compound 320, 320] | 11 ± 6
11 | CC1(C)OC2=C(C(=O)C(=O)c3ccccc32)C1n1cc(CNC2=CC(=O)c3ccccc3C2=O)nn1 (stereo not shown) [compound 189] | 25 ± 2
12 | CC(=O)NC1=CC(=O)c2c(cccc2[N+](=O)[O-])C1=O [compound 415, 415] | 100
13 | COc1ccc(SC2=C(Sc3ccc(OC)cc3)C(=O)c3ccccc3C2=O)cc1 [compound 382] | 100
14 | Cc1ccc(S(=O)(=O)n2cc(CNC3=CC(=O)c4ccccc4C3=O)nn2)cc1 [compound 319] | 5 ± 2
15 | O=C1C(Sc2ccccc2)=C(Sc2ccccc2)C(=O)c2ccccc21 [compound 379] | 100
16 | Cc1ccc(S(=O)(=O)n2cc(CN(C3=CC(=O)c4ccccc4C3=O)c3ccc(Br)cc3)nn2)cc1 [compound 314] | 36 ± 2
17 | CC1(C)OC2=C(C(=O)C(=O)c3ccccc32)C1n1cc(-c2ccccc2)nn1 (stereo not shown) [compound 159] | 35 ± 1
18 | Cc1ccc(S(=O)(=O)n2cc(CNC3=C(Br)C(=O)c4ccccc4C3=O)nn2)cc1 [compound 321, 321] | 40 ± 8
19 | CC(=O)NC1=CC(=O)c2cccc(O)c2C1=O [compound 414, 414] | 29 ± 2
